Where “and” joins values, the source holds several entries; their conditions need not be identical. Equal entries are not always repeated.
Tested on: BDF1 mice, Adenocarcinoma 755 s.c., tumor weight T/C
Experiment: NCI In Vivo Anticancer Drug Screen. Data for tumor model Adenocarcinoma 755 (subcutaneous) in B6D2F1 (BDF1) mice
Details: endpoint: mean tumor weight, schedule: Q01DX011 (ip), higher = larger tumour
How it was run: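 Tumor-bearing mice receive test compound while controls get vehicle alone. Antitumor effect is scored from survival or tumor dimensions as a T/C quotient.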

[1] = dose: 225.0 mg/kg/injection, vehicle: carboxymethylcellulose (CMC)
[2] = dose: 25.0 mg/kg/injection, vehicle: carboxymethylcellulose (CMC)
[3] = dose: 25.0 mg/kg/injection, vehicle: saline

With `CSc1nc(N)nc2c1ncn2C1OC(CO)C(O)C1O` (configuration not stated) the T/C (dose: 8.2 mg/kg/injection, vehicle: carboxymethylcellulose (CMC)) was 82 % of control, the T/C (dose: 16.5 mg/kg/injection, vehicle: carboxymethylcellulose (CMC)) was 53 % of control and the T/C (dose: 33.0 mg/kg/injection, vehicle: carboxymethylcellulose (CMC)) was 20 % of control. For the same compound, the T/C (dose: 66.0 mg/kg/injection, vehicle: carboxymethylcellulose (CMC)) was 9 % of control, the T/C (dose: 66.25 mg/kg/injection, vehicle: methylcellulose (MC)) was 9 % of control and the T/C (dose: 112.5 mg/kg/injection, vehicle: methylcellulose (MC)) was 4 % of control.
In the case of `NS(=O)(=O)c1ncc2[nH]cnc2n1`, the T/C [1] is reported as 111 % of control and the T/C (dose: 450.0 mg/kg/injection, vehicle: carboxymethylcellulose (CMC)) is reported as 82 % of control.
In the case of `CCOC(=O)C(C)(C)Br`, the T/C (dose: 50.0 mg/kg/injection, vehicle: methylcellulose (MC)) is reported as 85 % of control, the T/C (dose: 100.0 mg/kg/injection, vehicle: methylcellulose (MC)) is reported as 107 % of control and the T/C (dose: 200.0 mg/kg/injection, vehicle: methylcellulose (MC)) is reported as 47 % of control. The T/C (dose: 400.0 mg/kg/injection, vehicle: methylcellulose (MC)) was 18 % of control and the T/C (dose: 500.0 mg/kg/injection, vehicle: methylcellulose (MC)) was 13 % of control.
`Cn1cnc(N)c(NC=O)c1=O` was tested, and the T/C [2] was 98 % of control, the T/C (dose: 75.0 mg/kg/injection, vehicle: carboxymethylcellulose (CMC)) was 113 % of control and the T/C [1] was 115 % of control.
In the case of `CCCCN(C)N=Nc1ccc(CCCC(=O)OCC)cc1`, the T/C [3] is reported as 64 % of control, the T/C (dose: 50.0 mg/kg/injection, vehicle: saline) is reported as 57 % of control and the T/C (dose: 75.0 mg/kg/injection, vehicle: saline) is reported as 50 % of control.
In the case of `C=C(C)CSc1ncnc2nc[nH]c12`, the T/C (dose: 1.5 mg/kg/injection, vehicle: other) is reported as 82 % of control, the T/C (dose: 3.0 mg/kg/injection, vehicle: other) is reported as 78 % of control and the T/C (dose: 7.0 mg/kg/injection, vehicle: other) is reported as 22 % of control. For the same compound, the T/C (dose: 15.0 mg/kg/injection, vehicle: other) was 5 % of control, the T/C (dose: 30.0 mg/kg/injection, vehicle: other) was 5 % of control and 14 % of control and the T/C (dose: 60.0 mg/kg/injection, vehicle: other) was 2 % of control. For the same compound, the T/C (dose: 120.0 mg/kg/injection, vehicle: other) was 2 % of control.
With `NNC(=O)c1ccncc1` the T/C (dose: 15.13 mg/kg/injection, vehicle: carboxymethylcellulose (CMC)) was 116 % of control, the T/C (dose: 17.62 mg/kg/injection, vehicle: carboxymethylcellulose (CMC)) was 160 % of control and the T/C (dose: 19.25 mg/kg/injection, vehicle: carboxymethylcellulose (CMC)) was 112 % of control. The T/C (dose: 30.25 mg/kg/injection, vehicle: carboxymethylcellulose (CMC)) was 109 % of control, the T/C (dose: 38.5 mg/kg/injection, vehicle: carboxymethylcellulose (CMC)) was 78 % of control and the T/C (dose: 60.5 mg/kg/injection, vehicle: carboxymethylcellulose (CMC)) was 121 % of control. The T/C (dose: 70.5 mg/kg/injection, vehicle: carboxymethylcellulose (CMC)) was 178 % of control, the T/C (dose: 77.0 mg/kg/injection, vehicle: carboxymethylcellulose (CMC)) was 122 % of control and the T/C (dose: 121.0 mg/kg/injection, vehicle: carboxymethylcellulose (CMC)) was 100 % of control. The T/C (dose: 141.0 mg/kg/injection, vehicle: carboxymethylcellulose (CMC)) was 202 % of control.
For `Nc1ncnc2c1ncn2CCN(CCO)CCO`, the T/C [3] was 172 % of control and the T/C (dose: 225.0 mg/kg/injection, vehicle: saline) was 158 % of control.
`CSc1nc(N)nc2c1ncn2CCCl` was tested, and the T/C (dose: 10.0 mg/kg/injection, vehicle: saline) was 65 % of control, the T/C (dose: 20.0 mg/kg/injection, vehicle: saline) was 70 % of control and the T/C (dose: 40.0 mg/kg/injection, vehicle: saline) was 73 % of control. For the same compound, the T/C (dose: 80.0 mg/kg/injection, vehicle: saline) was 74 % of control.
With `CCOC(=O)n1cnc2ncnc(SC)c21` the T/C (dose: 5.0 mg/kg/injection, vehicle: carboxymethylcellulose (CMC)) was 59 % of control, the T/C (dose: 10.0 mg/kg/injection, vehicle: carboxymethylcellulose (CMC)) was 80 % of control and the T/C (dose: 12.5 mg/kg/injection, vehicle: carboxymethylcellulose (CMC)) was 48 % of control. For the same compound, the T/C [2] was 15 % of control, the T/C (dose: 50.0 mg/kg/injection, vehicle: carboxymethylcellulose (CMC)) was 7 % of control and the T/C (dose: 100.0 mg/kg/injection, vehicle: carboxymethylcellulose (CMC)) was 5 % of control. For the same compound, the T/C (dose: 200.0 mg/kg/injection, vehicle: carboxymethylcellulose (CMC)) was 5 % of control.
With `CCCCSc1nc(N)nc2c1ncn2CC(C)CC` (configuration not stated) the T/C (dose: 37.5 mg/kg/injection, vehicle: carboxymethylcellulose (CMC)) was 30 % of control and 47 % of control, the T/C (dose: 150.0 mg/kg/injection, vehicle: carboxymethylcellulose (CMC)) was 2 % of control and 18 % of control and the T/C (dose: 300.0 mg/kg/injection, vehicle: carboxymethylcellulose (CMC)) was 2 % of control.
